Data on 19 compounds can be found in patent US7868135B2, “Compositions of lipopeptide antibiotic derivatives and methods of use thereof” (priority 2003, dated 2011).

SMILES strings stand for the structures.

The first test concerns Staphylococcus aureus (MSSA). The conditions noted are these: 24 h. Here is the method: (“Approved Standard M7-A3”).
The antimicrobial lipopeptide derivatives described herein were tested for antimicrobial activity against Gram-positive bacteria as follows. The minimum inhibitory concentrations (MIC) of the antimicrobial lipopeptide derivatives of the invention were determined using NCCLS guidelines M7-A6 (2003) with a slight modification in that doubling serial dilutions were used to dilute the test compounds. The broth phase microdilution method was used. Isolated colonies of Staphylococcus aureus (MSSA) from an 18-24 hour blood agar plate cultures were used to inoculate cation adjusted Mueller-Hinton broth (CAMHB) supplemented with 0.625 mM calcium. […] A negative control containing media alone and a positive growth control containing bacteria with media alone were also included. MICs were determined after incubating the plates at about 37° C. for 24 hours. […] In Tables 1 to 16, R is the core cyclic peptide of amphomycin or aspartocin, which can be in the form of a β-isomer, an anhydro, a dianhydro, or any combination thereof. […] Furthermore, a person of skill in the art will appreciate that all the pounds, or groups of compounds, derived from the various combinations of and substituents shown in Tables 1 to 16, are disclosed by the present the same extent as if each compound or group of compounds was set forth individually.
With `CCCCCCCCCCCCCCC(=O)NC(CC(=O)O)C(=O)NC1C(=O)N2CCCCC2C(=O)NC(C(C)C(=O)O)C(=O)NC(CC(=O)O)C(=O)NCC(=O)NC(CC(=O)O)C(=O)NCC(=O)NC(C(C)NC(=O)[C@@H](N)c2ccccc2)C(=O)NC(C(C)C)C(=O)N2CCCC2C(=O)NC1C` (stereo partly shown) [Compound 41, C15-Amphomycin-9-Phg], the minimum inhibitory concentration (MIC) was found to be 4 µg/mL. The same measure, in the same setting: to `CCCCCCCCCCCCCCC(=O)NC(CC(=O)O)C(=O)NC1C(=O)N2CCCCC2C(=O)NC(C(C)C(=O)O)C(=O)NC(CC(=O)O)C(=O)NCC(=O)NC(CC(=O)O)C(=O)NCC(=O)NC(C(C)NC(=O)CNC(=O)CN)C(=O)NC(C(C)C)C(=O)N2CCCC2C(=O)NC1C` (stereo not shown) [Compound 42, C15-Amphomycin-9-Gly-Gly] belongs 1 µg/mL; to `CCCCCCCCCCCCCCC(=O)NC(CC(=O)O)C(=O)NC1C(=O)N2CCCCC2C(=O)NC(C(C)C(=O)O)C(=O)NC(CC(=O)O)C(=O)NCC(=O)NC(CC(=O)O)C(=O)NCC(=O)NC(C(C)NC(=O)[C@@H](N)CCC(N)=O)C(=O)NC(C(C)C)C(=O)N2CCCC2C(=O)NC1C` (stereo partly shown) [Compound 43, C15-Amphomycin-9-Gln], 8 to 16 µg/mL. Same read-out and setting: to `CCCCCCCCCCCCCCC(=O)NC(CC(=O)O)C(=O)NC1C(=O)N2CCCCC2C(=O)NC(C(C)C(=O)O)C(=O)NC(CC(=O)O)C(=O)NCC(=O)NC(CC(=O)O)C(=O)NCC(=O)NC(C(C)NC(=O)[C@@H](N)[C@@H](C)O)C(=O)NC(C(C)C)C(=O)N2CCCC2C(=O)NC1C` (stereo partly shown) [Compound 44, C15-Amphomycin-9-Thr] belongs 2 to 4 µg/mL. For `CCCCCCCCCCCCCCC(=O)NC(CC(=O)O)C(=O)NC1C(=O)N2CCCCC2C(=O)NC(C(C)C(=O)O)C(=O)NC(CC(=O)O)C(=O)NCC(=O)NC(CC(=O)O)C(=O)NCC(=O)NC(C(C)NC(=O)CNC(=O)[C@@H](N)CC(C)C)C(=O)NC(C(C)C)C(=O)N2CCCC2C(=O)NC1C` (stereo partly shown) [Compound 46, C15-Amphomycin-9-Gly-Leu], the MIC worked out at 1 µg/mL. Regarding `CCCCCCCCCCCCCCC(=O)NC(CC(=O)O)C(=O)NC1C(=O)N2CCCCC2C(=O)NC(C(C)C(=O)O)C(=O)NC(CC(=O)O)C(=O)NCC(=O)NC(CC(=O)O)C(=O)NCC(=O)NC(C(C)NC(=O)CNC(=O)CCC(=O)O)C(=O)NC(C(C)C)C(=O)N2CCCC2C(=O)NC1C` (stereo not shown) [Compound 48, C15-Amphomycin-9-Gly-Suc], the MIC stood at 8 µg/mL. Same read-out and setting: in the case of `CCCCCCCCCCCCCCC(=O)NC(CC(=O)O)C(=O)NC1C(=O)N2CCCCC2C(=O)NC(C(C)C(=O)O)C(=O)NC(CC(=O)O)C(=O)NCC(=O)NC(CC(=O)O)C(=O)NCC(=O)NC(C(C)NC(=O)CNC(C)=O)C(=O)NC(C(C)C)C(=O)N2CCCC2C(=O)NC1C` (stereo not shown) [Compound 49, C15-Amphomycin-9-Gly-Ac] it was 4 µg/mL. Still for that read-out and setting: in the case of `CCCCCCCCCCCCCCC(=O)NC(CC(=O)O)C(=O)NC1C(=O)N2CCCCC2C(=O)NC(C(C)C(=O)O)C(=O)NC(CC(=O)O)C(=O)NCC(=O)NC(CC(=O)O)C(=O)NCC(=O)NC(C(C)NC(=O)[C@@H](N)Cc2ccc(OC)cc2)C(=O)NC(C(C)C)C(=O)N2CCCC2C(=O)NC1C` (stereo partly shown) [Compound 52, C15-Amphomycin-9-Tyr(Me)] it was 16 µg/mL. Still for that read-out and setting: in the case of `CCCCCCCCCCCCCCC(=O)NC(CC(=O)O)C(=O)NC1C(=O)N2CCCCC2C(=O)NC(C(C)C(=O)O)C(=O)NC(CC(=O)O)C(=O)NCC(=O)NC(CC(=O)O)C(=O)NCC(=O)NC(C(C)NC(=O)[C@@H](C)N)C(=O)NC(C(C)C)C(=O)N2CCCC2C(=O)NC1C` (stereo partly drawn) [Compound 66, C15-Amphomycin-9-(D-Ala)] it was 4 µg/mL. As for `CCCCCCCCCCCCCCC(=O)NC(CC(=O)O)C(=O)NC1C(=O)N2CCCCC2C(=O)NC(C(C)C(=O)O)C(=O)NC(CC(=O)O)C(=O)NCC(=O)NC(CC(=O)O)C(=O)NCC(=O)NC(C(C)NC(=O)CNC(=O)CCCN)C(=O)NC(C(C)C)C(=O)N2CCCC2C(=O)NC1C` (stereo not shown) [Compound 68, C15-Amphomycin-9-Gly-GABA], the MIC is 2 µg/mL. Same read-out and setting: to `CCCCCCCCCCCCCCC(=O)NC(CC(=O)O)C(=O)NC1C(=O)N2CCCCC2C(=O)NC(C(C)C(=O)O)C(=O)NC(CC(=O)O)C(=O)NCC(=O)NC(CC(=O)O)C(=O)NCC(=O)NC(C(C)NC(=O)CCNC(=O)CCCCCN)C(=O)NC(C(C)C)C(=O)N2CCCC2C(=O)NC1C` (stereo not drawn) [Compound 70, C15-Amphomycin-9-(β-Ala)-Ahx] belongs 2 µg/mL.

Still in this test, the particulars now being: S. aureus (MSSA), CAMHB supplemented with 0.625 mM calcium, 24 hours at about 37° C.; a range = compound tested multiple times.
`CCCCCCCCCCCCC(=O)NC(CC(=O)O)C(=O)NC1C(=O)N2CCCCC2C(=O)NC(C(C)C(=O)O)C(=O)NC(CC(=O)O)C(=O)NCC(=O)NC(CC(=O)O)C(=O)NCC(=O)NC(C(C)NC(=O)CCCN)C(=O)NC(C(C)C)C(=O)N2CCCC2C(=O)NC1C` (stereo not shown) [Compound 50, C13-Amphomycin-9-GABA]: the MIC was 50/1 μg/mL.

As for `CCCCCCCCCCCCC(=O)NC(CC(=O)O)C(=O)NC1C(=O)N2CCCCC2C(=O)NC(C(C)C(=O)O)C(=O)NC(CC(=O)O)C(=O)NCC(=O)NC(CC(=O)O)C(=O)NCC(=O)NC(C(C)NC(=O)CN)C(=O)NC(C(C)C)C(=O)N2CCCC2C(=O)NC1C` (stereo not shown) [Compound 53, C13-Amphomycin-9-Gly], the MIC is 53/8 μg/mL. Still for that read-out and setting: to `CCCCCCCCCCCCC(=O)NC(CC(=O)O)C(=O)NC1C(=O)N2CCCCC2C(=O)NC(C(C)C(=O)O)C(=O)NC(CC(=O)O)C(=O)NCC(=O)NC(CC(=O)O)C(=O)NCC(=O)NC(C(C)NC(=O)CCN)C(=O)NC(C(C)C)C(=O)N2CCCC2C(=O)NC1C` (stereo not drawn) [Compound 54, C13-Amphomycin-9-(β-Ala)] belongs 54/2-4 μg/mL.

As for `CCCCCCCCCCCCC(=O)NC(CC(=O)O)C(=O)NC1C(=O)N2CCCCC2C(=O)NC(C(C)C(=O)O)C(=O)NC(CC(=O)O)C(=O)NCC(=O)NC(CC(=O)O)C(=O)NCC(=O)NC(C(C)NC(=O)CNC)C(=O)NC(C(C)C)C(=O)N2CCCC2C(=O)NC1C` (stereo not shown) [Compound 55, C13-Amphomycin-9-Sar], the MIC was 55/1 μg/mL.

In the case of `CCCCCCCCCCCC(=O)NC(CC(=O)O)C(=O)NC1C(=O)N2CCCCC2C(=O)NC(C(C)C(=O)O)C(=O)NC(CC(=O)O)C(=O)NCC(=O)NC(CC(=O)O)C(=O)NCC(=O)NC(C(C)NC(=O)CCCN)C(=O)NC(C(C)C)C(=O)N2CCCC2C(=O)NC1C` (stereo not shown) [Compound 57, C12-Amphomycin-9-GABA], the MIC is 57/16 μg/mL. Regarding `CCCCCCCCCCCC(=O)NC(CC(=O)O)C(=O)NC1C(=O)N2CCCCC2C(=O)NC(C(C)C(=O)O)C(=O)NC(CC(=O)O)C(=O)NCC(=O)NC(CC(=O)O)C(=O)NCC(=O)NC(C(C)NC(=O)CN)C(=O)NC(C(C)C)C(=O)N2CCCC2C(=O)NC1C` (stereo not shown) [Compound 58, C12-Amphomycin-9-Gly], the MIC is given as 58/4-8 μg/mL. Take `CCCCCCCCCCCCCC(=O)NC(CC(=O)O)C(=O)NC1C(=O)N2CCCCC2C(=O)NC(C(C)C(=O)O)C(=O)NC(CC(=O)O)C(=O)NCC(=O)NC(CC(=O)O)C(=O)NCC(=O)NC(C(C)NC(=O)CCN)C(=O)NC(C(C)C)C(=O)N2CCCC2C(=O)NC1C` (stereo not drawn) [Compound 59, C14-Amphomycin-9-(β-Ala)]: the MIC is 59/0.5-1 μg/mL. On the same count and under the same terms, in the case of `CCCCCCCCCCCCCC(=O)NC(CC(=O)O)C(=O)NC1C(=O)N2CCCCC2C(=O)NC(C(C)C(=O)O)C(=O)NC(CC(=O)O)C(=O)NCC(=O)NC(CC(=O)O)C(=O)NCC(=O)NC(C(C)NC(=O)CCCN)C(=O)NC(C(C)C)C(=O)N2CCCC2C(=O)NC1C` (stereo not shown) [Compound 62, C14-Amphomycin-9-GABA] it was 62/0.5-1 μg/mL.
